The values below come from ChEMBL document CHEMBL4665850, “Effect of methoxyflavones contained in Kaempferia parviflora on CRE-mediated transcription in PC12D cells” (Bioorg Med Chem Lett, 2020).

SMILES strings stand for the structures. Calls of active or inactive are those of the source. The calls are words filed in the database; no cut-off is given here.

The nature of series [1]: Cytotoxicity against rat PC12D cells assessed as reduction in cell viability at 30 uM by MTT assay. The class given is cell-based. For orientation: Tetrazolium assays rely on reduction of a dye to a coloured formazan, in cell work by metabolically active cells.
Series [2] is described as follows: Effect on transcription in rat PC12D cells transfected with pCRE-firefly luciferase and pRL-null-renilla luciferase assessed as renilla luciferase activity at 30 uM by dual luciferase reporter gene assay. It is filed as ADME, cell-based. On the technique in general: Reporter assays use an easily measured gene product as a stand-in for the process of interest.
In a further series the test system is PC12D. Nature of the series: Activation of CRE-mediated transcription in rat PC12D cells transfected with pCRE-firefly luciferase and pRL-null-renilla luciferase assessed as increase in CRE-driven firefly luciferase activity at 30 uM by dual luciferase reporter gene assay. It is filed as functional, cell-based.

In the case of `COc1cc(O)c2c(=O)c(OC)c(-c3ccccc3)oc2c1`, the Activity result in series [1] and in series [2] was “Non-Toxic” throughout. The outcome in the series with PC12D was inactive.

Consider `COc1cc(OC)c2c(=O)c(OC)c(-c3ccc(OC)c(OC)c3)oc2c1`, for which the Activity result in series [1] and in series [2] was “Non-Toxic” in each case. In the series on PC12D, the outcome was Active.

With `COc1ccc(-c2oc3cc(OC)cc(O)c3c(=O)c2OC)cc1`, the Activity result in series [1] and in series [2] was “Non-Toxic” each time. Moreover, the outcome in the series with PC12D was inactive.

On to `COc1ccc(-c2cc(=O)c3c(O)cc(OC)cc3o2)cc1` [APIGENIN DIMETHYLETHER], for which the Activity result in series [1] and in series [2] was “Non-Toxic” in each case. Moreover, the result with PC12D was inactive.

For `COc1cc(OC)c2c(=O)cc(-c3ccccc3)oc2c1` [CHRYSIN DIMETHYL ETHER], the Activity result in series [1] is given as “Non-Toxic”; in series [2], “Toxic”. For the same molecule, the result in the series on PC12D was Active.

Consider `COc1cc(O)c2c(=O)c(OC)c(-c3ccc(OC)c(OC)c3)oc2c1` [RETUSIN], for which the Activity entry in series [1] and in series [2] was “Non-Toxic” in each case. Further, the result in the series with PC12D was inactive.

On to `COc1cc(O)c2c(=O)cc(-c3ccccc3)oc2c1` [TECHTOCHRYSIN], for which the Activity result in series [1] and in series [2] was “Non-Toxic” in each case. Besides, the result in the series on PC12D was inactive.

On to `COc1cc(OC)c2c(=O)cc(-c3ccc(OC)c(OC)c3)oc2c1` [TETRAMETHYLLUTEOLIN], for which the Activity entry is listed as “Non-Toxic” in series [1] and “Toxic” in series [2]. Besides, in the series on PC12D, the result was Active.

With `COc1ccc(-c2cc(=O)c3c(OC)cc(OC)cc3o2)cc1` [TRIMETHYLAPIGENIN], the Activity result in series [1] is on record as “Non-Toxic”; in series [2], “Toxic”. Further, the outcome in the series on PC12D was Active.
